Data set [1] concerns human leukemia cells K562. The experiment in a line: MTT assay, tumor cell growth inhibition, K562. Type of data set: cell-based. The note with it: 48 hours. From the text:
(§1) MTT Assay—Inhibitory Effect of 6-dithio-substituted-2′-deoxyguanosine Derivatives on Tumor Cell Growth
(§2) We measured the tumor cell growth inhibitory activity of candidate compounds by MTT assay. Human tumor cells in logarithmic growth phase were digested with 0.25% pancreatin for a certain time, centrifuged, re-suspended and counted with a blood cell counting plate to prepare a cell suspension, and the cell suspension was adjusted to 1.0×10^4-1×10^5 cells/mL. The cell suspension was inoculated into a 96-well culture plate, 100 μL per well, and cultured in an incubator with saturated humidity, 37° C. and 5% CO2 for 24 hours until the cells completely adhered to the wall. The test compound was diluted to the required concentration with a complete medium, the complete medium of the 96-well culture plate inoculated with human tumor cells was sucked out, a medicament-containing medium was added, 100 μL per well, the final concentration of DMSO was less than 0.1%, and the culture plate was put in an incubator for 48 hours. 10 μl of MTT was added to each well of the 96-well plate, and the culture was continued for 4 h. The culture was stopped and the culture solution in the well was carefully sucked off. 150 μL DMSO was added to each well, and shaken at a low speed for 10 min on a shaking table, so that the crystal was fully dissolved. The absorbance of each well was measured at OD 570 nm of an enzyme-linked immunosorbent assay instrument. At the same time, zeroing wells (the culture medium, MTT, dimethyl sulfoxide) and control wells (cells, a drug dissolution medium with the same concentration, a culture solution, MTT, dimethyl sulfoxide) were set up, and the cell growth inhibitory activity was calculated with the corresponding solvents as the control. 3-6 multiple wells in each group were set up with repetition of several times. Cell viability of control=(Adrug group−Azeroing well)/(Acontrol well−Azeroing well)*100%. Drawing was drawn, the data were fitted into a concentration response curve with a variable slope, and IC50 value was calculated from the curve.

Data set [2] in a line: Blood biochemical analysis and HE staining of tissues in HCT116 tumor-bearing nude mice. Type of data set: in vivo. The note with it: tail vein once every two days, 12 times, blood 48 hours after the last treatment. The procedure: (§3) We took human colon cancer cell line HCT116 as the research object, and established a subcutaneous transplanted tumor model of human colon cancer in 32 immunodeficient nude mice. The 24th generation HCT116 cells in logarithmic growth phase were digested with pancreatin to prepare a single-cell suspension, and 1×10^7 cells were inoculated subcutaneously in the right armpit of male nude mice about 5 weeks old. After inoculation, cyclophosphamide (100 mg/kg) was injected intraperitoneally for two consecutive days. […] On the 20th day after colon cancer cell HCT116 was implanted subcutaneously, nude mice were divided into 7 groups by a random number table method, including a test drug group, a positive control group and a blank control group. Specifically, group A: the compound A was administrated; Group B: the compound B was administrated; Group C: the compound C was administrated; Group D: the compound D was administrated; Group E: the compound 6-thio-DG was administrated; Group F: the compound PX-12 was administrated; Group G: blank group, without administration of any compound. Except group C with 3 rats and group G with 4 rats, all other 5 groups had 5 rats, they mice were labeled and injected by tail vein once every two days for 24 days, 12 times, with the dose of compound A being 2 mg/kg for the first 8 times and 10 mg/kg for the last 4 times, and the dosages of other drugs being the same molar weights. The tumor volume was calculated by taking the length of the tumor as the longest diameter and the width as the corresponding vertical diameter, and the tumor volume V=(length×width^2) mm^3/2. 48 hours after the last treatment, blood was taken from the eyes, and then the animals were killed. Blood was centrifuged to get the supernatant, and then blood biochemical analysis was performed. Paraffin embedded sections of fixed tissues were stained with HE. The tumor mass in a frozen tissue was sectioned in a frozen state, and then stained by DAPI and TUNEL to judge the apoptosis of the tumor tissue in nude mice.

In data set [3] the test system is human colon cancer cell line HCT116 subcutaneous transplanted tumor. The experiment in a line: Tumor-bearing test in nude mice, HCT116 subcutaneous transplanted tumor (tumor volume, TUNEL). Format: in vivo. The note with it: HCT116 model; for Extent of apoptosis in tumor tissue (TUNEL staining, rank order): frozen tumor sections, DAPI and TUNEL, G group = blank; for Inhibitory effect on the growth of subcutaneous transplanted tumor tissue in nude mice (rank order, from slope of tumor volume): tail vein once every two days for 24 days, compound A 2 mg/kg first 8 times, 10 mg/kg last 4 times, others equimolar, KB = blank.
Description: Tumor-Bearing Test in Nude Mice—Inhibitory Effect of 6-Dithio-Substituted-2′-Deoxyguanosine Derivatives on the Growth of Subcutaneous Transplanted Tumor Tissue in Nude Mice
1) Tumor-Bearing Mouse Model of Human Colon Cancer Cell Line HCT116
as §3

For data set [4], the system named is human colon cancer cells HCT116. The experiment in a line: MTT assay, tumor cell growth inhibition, HCT116. Particulars: HCT-116, 48 hours. Format: cell-based.
Description: as §1, §2
(In general: Tetrazolium assays rely on reduction of a dye to a coloured formazan, in cell work by metabolically active cells.)

The test system of data set [5] is human liver cancer cells HepG2. Kind of data set: MTT assay, tumor cell growth inhibition, HepG2. Format: cell-based. Particulars: 48 hours.
Description: as §1, §2

Data set [6] relates to human breast cancer cells Bcap37. The experiment in a line: MTT assay, tumor cell growth inhibition, Bcap37. Format: cell-based. Particulars: 48 hours.
Description: as §1, §2

Data set [7] has as its system human non-small cell lung cancer A549. Kind of data set: MTT assay, tumor cell growth inhibition, A549. Format: cell-based. The note with it: 48 hours.
Description: as §1, §2

The subject of data set [8] is human colon cancer cells HT29. The experiment in a line: MTT assay, tumor cell growth inhibition, HT29. Type of data set: cell-based. Particulars: HT-29, 48 hours.
Description: as §1, §2

The target of data set [9] is T1, TrxR/Trx-1 (Homo sapiens, UniProt P10599).
T1 sequence (P10599 2-105 limits assumed): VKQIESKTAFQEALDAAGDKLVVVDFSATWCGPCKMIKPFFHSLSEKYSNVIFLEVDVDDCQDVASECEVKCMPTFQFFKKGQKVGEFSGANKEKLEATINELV
Kind of data set: Ellman test, inhibition of TrxR/Trx-1 activity. Type of data set: biochemical. The note with it: Ellman reaction, 37° C. 30 min, absorbance 412 nm; read-out: IC50, inhibition of TrxR/Trx-1 activity. From the text:
Ellman Test—Inhibitory Effect of 6-dithio-substituted-2′-deoxyguanosine Derivative Analogues on TrxR/Trx-1 Activity
A TrxR/TR experiment based on the Ellman reaction was used to determine the inhibitory activity of candidate compounds. Ellman reaction is that 5,5′-dithiobis (2-nitrobenzoic acid) (DTNB) reacts with sulfhydryl (—SH) to form a yellow substance with absorption at 412 nm. The increase of absorption can be equivalent to the decrease of NADPH mediated by TrxR, thus further judging the activity of TrxR/Trx-1. All experiments were carried out on 96-well plates. Before the start of the enzyme reaction, five groups of corresponding test compound stock solutions with different concentrations were prepared. In the TrxR/Trx-1 reaction, a total volume per well was 60 μL, including 100 mM HEPES, 5 mM EDTA (HE buffer, pH 7.5), 1 mM NADPH, 1.0 μM TrxR, 0.8 μM Trx-1, 2.5 mg/mL bovine insulin and the required concentration of compounds to be tested. No compound to be tested was added to the control group. No compound to be tested, TrxR and Trx-1 were added in the blank group. The plate was shaken on an oscillator for 30 seconds to fully mix the reactants. After incubation at 37° C. for 30 min, 100 μL of the prepared mixture containing 6 M guanidine hydrochloride, 50 mm Tris and 10 mm DTNB was added to terminate the reaction. After 15 minutes of incubation, the absorbance was measured at 412 nm. Finally, TrxR/Trx-1 activity %=(Atest−Akb)/(Acontrol−Akb), that is, the relative percentage of TrxR/Trx-1 activity was the activity inhibited by adding 2′-deoxyguanosine derivatives relative to the activity without 2′-deoxyguanosine derivatives. The data were fitted into a concentration response curve with a variable slope, and the IC50 value was calculated from the curve.
On the technique in general: In Ellman's method for cholinesterases, released thiocholine reacts with DTNB.

The subject of data set [10] is NCM460. The experiment in a line: MTT assay, cell growth inhibition, NCM460. Format: cell-based. Particulars: Homo sapiens, 48 hours, read-out: Tumor cell growth inhibition IC50, NCM460.
Description: as §1, §2

The subject of data set [11] is human melanoma cells A375. The experiment in a line: MTT assay, tumor cell growth inhibition, A375. Format: cell-based. Particulars: A-375, 48 hours.
Description: as §1, §2

Data set [12] deals with human breast cancer cells MCF7. Kind of data set: MTT assay, tumor cell growth inhibition, MCF7. Type of data set: cell-based. The note with it: 48 hours.
Description: as §1, §2

In data set [13] the test system is human colon cancer cells SW620. The experiment in a line: MTT assay, tumor cell growth inhibition, SW620. The note with it: SW-620, 48 hours. Type of data set: cell-based.
Description: as §1, §2

In [1], `CC(C)(C)SSc1nc(N)nc2c1ncn2C1C[C@H](O)[C@@H](CO)O1` (some centres unmarked) [Compound C, 6-(tert-butyldithio)-2′-deoxyguanosine] yielded an IC50 of 28.7 µM. In data set [2], this compound had an Alanine aminotransferase of 25.5 U/L, an Albumin of 27.9 g/L, an Alkaline phosphatase of 33.7 U/L and an Aspartate aminotransferase of 128.3 U/L. In data set [2], this compound registered a BUN of 9.00 mmol/L, a Chloride ion of 120.5 mmol/L, a Creatine kinase of 980.7 U/L and a Creatinine of 6.67 µmol/L. Also, in data set [2], the Glucose came out at 2.99 mmol/L, the Potassium ion was 6.17 mmol/L, the Sodium ion is on record as 159.0 mmol/L and the Total bilirubin turned out to be 0.80 µmol/L. Moreover, in data set [2], the Total cholesterol is 2.65 mmol/L, the Total protein is given as 51.6 g/L and the Triglyceride is reported as 1.15 mmol/L. Moreover, in data set [3], the “Extent of apoptosis in tumor tissue (TUNEL staining, rank order)” value is on record as “D group>A group≈B group≈E group (6-thio-dG group)>C group>F group (PX-12 group)>G group (KB group)” and the “Inhibitory effect on the growth of subcutaneous transplanted tumor tissue in nude mice (rank order, from slope of tumor volume)” value is listed as “D>B≈A≈6-thio-dG>PX-12>C>KB”. This compound also gave an IC50 in data set [4] of 21.8 µM. The IC50 in [5] was in the range of 10 to 50 µM. This compound also gave an IC50 in [6] of 35.1 µM. This compound came in with an IC50 in data set [7] of 35.8 µM. In data set [8], this compound gave an IC50 of 7.37 µM. Besides, the IC50 in data set [9] stood at 47.7 µM. Besides, the IC50 in data set [10] was greater than 1000 µM. The IC50 in data set [11] came out at 3.06 µM.

With `CCC(C)SSc1ncc[nH]1` (centres unmarked) [PX-12, 1-methylpropyl-2-imidazolyl disulfide, reference compound], in data set [1], the IC50 came to 21.7 µM. The compound further came in with an IC50 in [12] greater than 100 µM. In [2], this compound showed an Alanine aminotransferase of 30.8 U/L, an Albumin of 33.0 g/L, an Alkaline phosphatase of 44.2 U/L and an Aspartate aminotransferase of 169.0 U/L. In addition, in data set [2], the BUN is 8.10 mmol/L, the Chloride ion worked out at 109.9 mmol/L, the Creatine kinase is 1434 U/L and the Creatinine was found to be 3.20 µmol/L. In data set [2], this compound came in with a Glucose of 1.47 mmol/L, a Potassium ion of 7.64 mmol/L, a Sodium ion of 155.8 mmol/L and a Total bilirubin of -0.90 µmol/L. For the same compound, in data set [2], the Total cholesterol stood at 2.53 mmol/L, the Total protein is listed as 56.9 g/L and the Triglyceride is 1.18 mmol/L. In data set [3], the “Extent of apoptosis in tumor tissue (TUNEL staining, rank order)” value is listed as “D group>A group≈B group≈E group (6-thio-dG group)>C group>F group (PX-12 group)>G group (KB group)” and the “Inhibitory effect on the growth of subcutaneous transplanted tumor tissue in nude mice (rank order, from slope of tumor volume)” value is on record as “D>B≈A≈6-thio-dG>PX-12>C>KB”. Besides, the IC50 in data set [4] turned out to be 34.5 µM. For the same compound, in data set [5], the IC50 lay in the range of 10 to 50 µM. Also, in [6], the IC50 was greater than 100 µM. This compound displayed an IC50 in [7] of 7.43 µM. The compound also yielded an IC50 in [8] of 3.37 µM. For the same compound, in [9], the IC50 was 2.55 µM. Moreover, in data set [13], the IC50 is 1.68 µM. Besides, the IC50 in data set [10] is greater than 1000 µM. Further, the IC50 in data set [11] turned out to be 2.98 µM.

For the compound `Nc1nc(Cl)nc2c1ncn2[C@H]1C[C@H](O)[C@@H](CO)O1` [Cladribine, reference compound], the IC50 in [1] is 7.86 µM; in data set [12], greater than 100 µM; in data set [4], 28.4 µM; in data set [6] it was greater than 100 µM; in data set [8] it was 9.44 µM; in data set [9], greater than 100 µM. The figures for the IC50 in data set [13] and in [10] were greater than 100 µM and greater than 1000 µM, respectively.

These data come from US11247994B2, “6-dithio-substituted-2′-deoxyguanosine compound, preparation method thereof and use thereof” (ZHEJIANG UNIVERSITY, priority 2018, dated 2022).
